The experiment is described as follows: Effect on rate of GTP hydrolysis in the GTP binding protein ras p21.

Compound `CC(C)[C@H](N)C(=O)O` came in with a krel of 1.02.
The value for `CNC[C@H](N)C(=O)O` was 1; that for `C[C@H](N)C(=O)O` was 1.04; that for `CCC[C@H](N)C(=O)O` was 0.98.

The record behind these values is ChEMBL document CHEMBL1130808, “Prediction of the GTPase activities by using the semiempirical molecular orbital theory” (Bioorg Med Chem Lett, 1998).
